Data reported in ChEMBL document CHEMBL1151888, “Synthesis, initial SAR and biological evaluation of 1,6-dihydroimidazo[4,5-d]pyrrolo[2,3-b]pyridin-4-amine derived inhibitors of IkappaB kinase” (Bioorg Med Chem Lett, 2009).
≈ marks a conversion by molar mass, not a printed value. Calls of active or inactive are those of the source. No cut-off for these calls is given here.

How the values were obtained:
[1] = Inhibition of IKK1-catalyzed phosphorylation of GST-tagged IkappaBalpha fusion protein by fluorescence polarization assay
PBMC = assay: Antiinflammatory activity in human PBMC assessed as inhibition of LPS-induced TNFalpha production treated 30 mins before LPS challenge measured after 6 hrs of LPS induction by ELISA; type: functional, cell-based
[2] = molecular target: Inhibitor of nuclear factor kappa-B kinase subunit alpha (Homo sapiens) (UniProt O15111); assay: Inhibition of IKK2-catalyzed phosphorylation of GST-tagged IkappaBalpha fusion protein by fluorescence polarization assay
Blood [3] = assay: Antiinflammatory activity in Lewis rat whole blood assessed as inhibition of LPS-induced TNFalpha production at 17 uM treated 45 mins before LPS challenge measured after 4 hrs by ELISA; type: functional, tissue-based
[4] = Aqueous solubility at pH 1.0; type: physicochemical; details: aqueous solution
[5] = Total AUC in rat at 2 mg/kg, iv; type: ADME, organism-based; parameters: time AUCmax, dose 2 mg/kg, route intravenous; details: in vivo
[6] = Total AUC in rat at 10 mg/kg, po; type: ADME, organism-based; parameters: time AUCmax, dose 10 mg/kg, route oral; details: in vivo
[7] = Half life in rat at 2 mg/kg, iv; type: ADME, organism-based; parameters: dose 2 mg/kg, route intravenous; details: in vivo
[8] = Half life in rat at 10 mg/kg, po; type: ADME, organism-based; parameters: dose 10 mg/kg, route oral; details: in vivo
[9] = Mean residence time in rat at 2 mg/kg, iv; type: ADME, organism-based; parameters: dose 2 mg/kg, route intravenous; details: in vivo
[10] = Mean residence time in rat at 10 mg/kg, po; type: ADME, organism-based; parameters: dose 10 mg/kg, route oral; details: in vivo
[11] = Clearance in rat at 2 mg/kg, iv; type: ADME, organism-based; parameters: dose 2 mg/kg, route intravenous; details: in vivo
[12] = Volume of distribution at steady state in rat at 2 mg/kg, iv; type: ADME, organism-based; parameters: dose 2 mg/kg, route intravenous; details: in vivo, read-out: Vdss
[13] = Oral bioavailability in rat at 10 mg/kg; type: ADME, organism-based; details: in vivo
Rattus norvegicus [14] = assay: Antiinflammatory activity in po dosed Lewis rat assessed as inhibition of LPS-induced TNFalpha production administered 4 hrs before LPS challenge measured after 90 mins by ELISA; type: functional, organism-based
Rattus norvegicus [15] = assay: Antiinflammatory activity in Lewis rat assessed as inhibition of LPS-induced TNFalpha production at 30 mg/kg, po administered 4 hrs before LPS challenge measured after 90 mins by ELISA; type: functional; parameters: scale not given: the % may be the effect or the level left
Blood [16] = assay: Antiinflammatory activity in Lewis rat whole blood assessed as inhibition of LPS-induced TNFalpha production treated 45 mins before LPS challenge measured after 4 hrs by ELISA; type: functional, tissue-based
Serum [17] = assay: Drug level in Lewis rat serum at 3 mg/kg, po; type: ADME, organism-based; parameters: dose 3 mg/kg, route oral; details: in vivo, read-out: Drug uptake
Serum [18] = assay: Drug level in Lewis rat serum at 10 mg/kg, po; type: ADME, organism-based; parameters: dose 10 mg/kg, route oral; details: in vivo, read-out: Drug uptake
Serum [19] = assay: Drug level in Lewis rat serum at 30 mg/kg, po; type: ADME, organism-based; parameters: dose 30 mg/kg, route oral; details: in vivo, read-out: Drug uptake
[20] = Solubility of the compound; type: physicochemical

Inhibitor of nuclear factor kappa-B kinase subunit alpha (Homo sapiens), sequence (O15111 whole entry, looked up, the tested form may be a part): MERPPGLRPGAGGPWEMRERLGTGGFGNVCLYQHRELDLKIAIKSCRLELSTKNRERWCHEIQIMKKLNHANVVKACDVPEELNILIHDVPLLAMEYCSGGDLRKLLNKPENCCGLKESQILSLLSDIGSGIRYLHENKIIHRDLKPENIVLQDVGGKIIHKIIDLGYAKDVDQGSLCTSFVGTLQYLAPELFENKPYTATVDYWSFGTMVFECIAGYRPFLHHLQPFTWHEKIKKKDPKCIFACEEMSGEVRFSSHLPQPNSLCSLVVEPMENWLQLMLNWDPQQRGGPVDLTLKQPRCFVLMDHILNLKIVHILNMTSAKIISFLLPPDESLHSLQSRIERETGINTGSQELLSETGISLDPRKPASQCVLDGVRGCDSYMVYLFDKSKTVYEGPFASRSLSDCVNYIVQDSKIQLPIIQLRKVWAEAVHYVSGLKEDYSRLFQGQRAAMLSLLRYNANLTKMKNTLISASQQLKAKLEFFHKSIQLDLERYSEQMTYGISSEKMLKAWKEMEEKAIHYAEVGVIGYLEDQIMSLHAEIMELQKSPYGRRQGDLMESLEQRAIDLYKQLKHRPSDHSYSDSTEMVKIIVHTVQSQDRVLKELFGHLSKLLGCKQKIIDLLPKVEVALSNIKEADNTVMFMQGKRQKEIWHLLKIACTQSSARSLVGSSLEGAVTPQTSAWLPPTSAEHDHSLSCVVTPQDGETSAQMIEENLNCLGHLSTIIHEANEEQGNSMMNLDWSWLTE

Row | IC50 [1] [µM] | SMILES | IC50 (PBMC) [µM] | also measured
1 | 0.014 | CNc1nc2[nH]c(-c3cccc(CNC(C)=O)c3)cc2c2c1ncn2C | 0.372 | IC50 [2]: 0.633 µM
2 | – | CNc1nc2sc(-c3ccccc3)nc2c2c1ncn2C | 0.31 | –
3 | 0.012 | CNc1nc2[nH]c(-c3cccc(CNC(=O)CCOC)c3)cc2c2c1ncn2C | 0.37 | Activity (Blood [3]): Active; solubility [4]: 1820 µg/mL (≈ 4.65 mM); AUC [5]: 46.9 µM·h; AUC [6]: 71.7 µM·h; half-life [7]: 4.8 h; half-life [8]: 11 h; MRT [9]: 2.1 h; MRT [10]: 14.7 h; clearance [11]: 1.8 mL/min/kg; Vd [12]: 0.2 L/kg; bioavailability [13]: 31%; Activity (Rattus norvegicus [14]): Dose-dependent effect; Activity (Rattus norvegicus [15]): 85%; IC50 (Blood [16]): 8 µM; concentration (Serum [17]): 900 nM; concentration (Serum [18]): 3000 nM; concentration (Serum [19]): 17000 nM; IC50 [2]: 2.62 µM
4 | – | CNc1nc2[nH]c(-c3cccc(CNC(=O)CO)c3)cc2c2c1ncn2C | 0.478 | –
5 | 0.007 | CNc1nc2[nH]c(-c3cccc(C#N)c3)cc2c2c1ncn2C | 0.086 | solubility [20]: < 5 µg/mL
6 | – | CNc1nc2[nH]c(-c3cccc(CN)c3)cc2c2c1ncn2C | 0.34 | –
7 | 0.008 | CNc1nc2[nH]c(-c3cccc(OC)c3)cc2c2c1ncn2C | 0.32 | –
8 | 0.079 | CNc1nc2[nH]c(-c3cccc(CNC(=O)CN(C)C)c3)cc2c2c1ncn2C | 2 | –
9 | 0.043 | CNc1nc2[nH]c(-c3ccc(F)cc3)cc2c2c1ncn2C | 0.538 | IC50 [2]: 1.73 µM
10 | – | CNc1nc2c(nc(-c3ccccc3)n2C)c2c1ncn2C | 0.446 | –
11 | – | CNc1nc2oc(-c3ccccc3)nc2c2c1ncn2C | 0.39 | –
12 | – | CNc1nc2[nH]c(-c3cccc(F)c3)cc2c2c1ncn2C | 0.153 | –
13 | – | CNc1nc2[nH]c(-c3ccccc3F)cc2c2c1ncn2C | 0.931 | –
14 | – | CNc1nc2[nH]c(-c3ccccc3)cc2c2c1ncn2C | 0.8 | –
15 | 0.022 | CNc1nc2[nH]c(-c3cccc(CNC(=O)CCC(N)=O)c3)cc2c2c1ncn2C | 1 | –
